In ChEMBL document CHEMBL1147414, “Synthesis of galactopyranosyl amino alcohols as a new class of antitubercular and antifungal agents” (2004):
Converted amounts (≈) assume the structure as drawn.

What was measured:
[1] = tested on: Trichophyton benhamiae; assay: Minimum inhibitory concentration against Trichophyton mentagrophytes; assay type: functional, Arthroderma benhamiae
[2] = tested on: Mycobacterium tuberculosis; assay: Minimum inhibitory concentration against Mycobacterium tuberculosis; assay type: functional
[3] = tested on: Candida albicans; assay: Minimum inhibitory concentration against Candida albicans; assay type: functional
[4] = tested on: Sporothrix schenckii; assay: Minimum inhibitory concentration against Sporothrix schenckii
[5] = tested on: Candida parapsilosis; assay: Minimum inhibitory concentration against Candida parapsilosis; assay type: functional; conditions: Lodderomyces parapsilosis
[6] = tested on: Cryptococcus neoformans; assay: Minimum inhibitory concentration against Cryptococcus neoformans; assay type: functional
[7] = tested on: Aspergillus fumigatus; assay: Minimum inhibitory concentration against Aspergillus fumigatus; assay type: functional
[8] = tested on: Mycobacterium tuberculosis; assay: In vito growth of Mycobacterium tuberculosis BC-248 strain after 6 weeks; + indicates 1-20 colonies; assay type: functional, organism-based
[9] = tested on: Mycobacterium tuberculosis; assay: In vito growth of Mycobacterium tuberculosis BC-248 strain after 6 weeks; - indicates no growth; assay type: functional, organism-based
[10] = tested on: Mycobacterium tuberculosis; assay: In vito growth of Mycobacterium tuberculosis BC-437 strain after 6 weeks; - indicates no growth; assay type: functional, organism-based
[11] = tested on: Mycobacterium tuberculosis; assay: In vito growth of Mycobacterium tuberculosis VA-101 strain after 6 weeks; […] colonies; assay type: functional, organism-based
[12] = tested on: Mycobacterium tuberculosis; assay: In vito growth of Mycobacterium tuberculosis BC-243 strain after 6 weeks; - indicates no growth; assay type: functional, organism-based
[13] = tested on: Mycobacterium tuberculosis; assay: In vito growth of Mycobacterium tuberculosis BC-426 strain after 6 weeks; - indicates no growth; assay type: functional, organism-based

| Structure (SMILES) | MIC [1] | MIC [2] | MIC [3] | MIC [4] | MIC [5] | MIC [6] | MIC [7] | Growth [8] | Growth [9] | Growth [10] | Growth [11] | Growth [12] | Growth [13] |
| --- | --- | --- | --- | --- | --- | --- | --- | --- | --- | --- | --- | --- | --- |
| CC1(C)O[C@H]2OC(COCC(O)CN3CCCCC3)[C@@H]3OC(C)(C)O[C@@H]3[C@H]2O1 (stereo partly specified) | 50 µg/mL (≈ 125 µM) | > 50 µg/mL | > 50 µg/mL | > 50 µg/mL | > 50 µg/mL | 25 µg/mL (≈ 62.3 µM) | > 50 µg/mL | – | – | – | – | – | – |
| CC(=O)N1CCN(c2ccc(OC[C@H]3CO[C@](Cn4ccnc4)(c4ccc(Cl)cc4Cl)O3)cc2)CC1 [KETOCONAZOLE] | 0.25 µg/mL (≈ 0.47 µM) | – | 0.001 µg/mL (≈ 0.00188 µM) | 0.5 µg/mL (≈ 0.941 µM) | 0.12 µg/mL (≈ 0.226 µM) | 0.12 µg/mL (≈ 0.226 µM) | 0.25 µg/mL (≈ 0.47 µM) | – | – | – | – | – | – |
| CC1(C)O[C@H]2OC(COCC(O)CN3CCOCC3)[C@@H]3OC(C)(C)O[C@@H]3[C@H]2O1 (stereo partly specified) | 50 µg/mL (≈ 124 µM) | > 50 µg/mL | > 50 µg/mL | > 50 µg/mL | > 50 µg/mL | 25 µg/mL (≈ 62 µM) | > 50 µg/mL | – | – | – | – | – | – |
| CC1(C)O[C@@H]2OC(COCC(O)CNCCCCCCCCCCCCNCC(O)COCC3O[C@@H]4OC(C)(C)O[C@@H]4[C@H]4OC(C)(C)O[C@@H]34)[C@H]3OC(C)(C)O[C@H]3[C@@H]2O1 (stereo partly specified) | 50 µg/mL (≈ 60 µM) | 1.56 µg/mL (≈ 1.87 µM) | > 50 µg/mL | > 50 µg/mL | > 50 µg/mL | 12.5 µg/mL (≈ 15 µM) | > 50 µg/mL | 1-20 colonies | – | – | – | – | – |
| CCCCCCCCCCCCCCCCNCC(O)COCC1O[C@@H]2OC(C)(C)O[C@@H]2[C@H]2OC(C)(C)O[C@@H]12 (stereo partly specified) | 12.5 µg/mL (≈ 22.4 µM) | 12.5 µg/mL (≈ 22.4 µM) | 25 µg/mL (≈ 44.8 µM) | 25 µg/mL (≈ 44.8 µM) | 25 µg/mL (≈ 44.8 µM) | 6.25 µg/mL (≈ 11.2 µM) | 25 µg/mL (≈ 44.8 µM) | – | – | – | – | – | – |
| CC1(C)O[C@@H]2OC(COCC(O)CNCCCCCCCCCNCC(O)COCC3O[C@@H]4OC(C)(C)O[C@@H]4[C@H]4OC(C)(C)O[C@@H]34)[C@H]3OC(C)(C)O[C@H]3[C@@H]2O1 (stereo partly specified) | 50 µg/mL (≈ 63.2 µM) | > 50 µg/mL | > 50 µg/mL | > 50 µg/mL | > 50 µg/mL | 25 µg/mL (≈ 31.6 µM) | > 50 µg/mL | – | – | – | – | – | – |
| CC[C@@H](CO)NCCN[C@@H](CC)CO [ETHAMBUTOL] | – | 3.25 µg/mL (≈ 15.9 µM) | – | – | – | – | – | – | – | – | – | – | – |
| CC1(C)O[C@@H]2OC(COCC(O)CNCCCNCC(O)COCC3O[C@@H]4OC(C)(C)O[C@@H]4[C@H]4OC(C)(C)O[C@@H]34)[C@H]3OC(C)(C)O[C@H]3[C@@H]2O1 (stereo partly specified) | 50 µg/mL (≈ 70.7 µM) | > 50 µg/mL | > 50 µg/mL | > 50 µg/mL | > 50 µg/mL | 25 µg/mL (≈ 35.4 µM) | > 50 µg/mL | – | – | – | – | – | – |
| C[C@@H]1CN(c2c(F)c(N)c3c(=O)c(C(=O)O)cn(C4CC4)c3c2F)C[C@H](C)N1 | – | – | – | – | – | – | – | – | No growth | No growth | 1-20 colonies | No growth | No growth |
| CC1(C)O[C@@H]2OC(COCC(O)CNCCCCCCCNCC(O)COCC3O[C@@H]4OC(C)(C)O[C@@H]4[C@H]4OC(C)(C)O[C@@H]34)[C@H]3OC(C)(C)O[C@H]3[C@@H]2O1 (stereo partly specified) | 50 µg/mL (≈ 65.5 µM) | > 50 µg/mL | > 50 µg/mL | > 50 µg/mL | > 50 µg/mL | 50 µg/mL (≈ 65.5 µM) | > 50 µg/mL | – | – | – | – | – | – |
| CC1(C)O[C@@H]2OC(COCC(O)CNCCCCCCCCCCNCC(O)COCC3O[C@@H]4OC(C)(C)O[C@@H]4[C@H]4OC(C)(C)O[C@@H]34)[C@H]3OC(C)(C)O[C@H]3[C@@H]2O1 (stereo partly specified) | 50 µg/mL (≈ 62.1 µM) | > 50 µg/mL | > 50 µg/mL | > 50 µg/mL | > 50 µg/mL | 12.5 µg/mL (≈ 15.5 µM) | > 50 µg/mL | – | – | – | – | – | – |
| CC1(C)O[C@H]2OC(COCC(O)CN3CCN(c4cccc(Cl)n4)CC3)[C@@H]3OC(C)(C)O[C@@H]3[C@H]2O1 (stereo partly specified) | 25 µg/mL (≈ 48.6 µM) | > 50 µg/mL | > 50 µg/mL | > 50 µg/mL | > 50 µg/mL | 12.5 µg/mL (≈ 24.3 µM) | > 50 µg/mL | – | – | – | – | – | – |
| CCCCCCCC/C=C/CCCCCCCCNCC(O)COCC1O[C@@H]2OC(C)(C)O[C@@H]2[C@H]2OC(C)(C)O[C@@H]12 (stereo partly specified) | 25 µg/mL (≈ 42.8 µM) | 12.5 µg/mL (≈ 21.4 µM) | 50 µg/mL (≈ 85.6 µM) | 50 µg/mL (≈ 85.6 µM) | > 50 µg/mL | 6.25 µg/mL (≈ 10.7 µM) | 50 µg/mL (≈ 85.6 µM) | – | – | – | – | – | – |
| CC1(C)O[C@H]2OC(COCC(O)CNCc3ccco3)[C@@H]3OC(C)(C)O[C@@H]3[C@H]2O1 (stereo partly specified) | 50 µg/mL (≈ 121 µM) | > 50 µg/mL | > 50 µg/mL | > 50 µg/mL | > 50 µg/mL | 25 µg/mL (≈ 60.5 µM) | > 50 µg/mL | – | – | – | – | – | – |
| CC1(C)O[C@H]2OC(COCC(O)CN3CCCC3)[C@@H]3OC(C)(C)O[C@@H]3[C@H]2O1 (stereo partly specified) | 50 µg/mL (≈ 129 µM) | > 50 µg/mL | > 50 µg/mL | > 50 µg/mL | > 50 µg/mL | 25 µg/mL (≈ 64.5 µM) | > 50 µg/mL | – | – | – | – | – | – |
| CCCCCCCCCCCCNCC(O)COCC1O[C@@H]2OC(C)(C)O[C@@H]2[C@H]2OC(C)(C)O[C@@H]12 (stereo partly specified) | 6.25 µg/mL (≈ 12.5 µM) | 12.5 µg/mL (≈ 24.9 µM) | 12.5 µg/mL (≈ 24.9 µM) | 6.25 µg/mL (≈ 12.5 µM) | 25 µg/mL (≈ 49.8 µM) | 1.56 µg/mL (≈ 3.11 µM) | 6.25 µg/mL (≈ 12.5 µM) | – | – | – | – | – | – |
| CC1(C)O[C@H]2OC(COCC(O)CNCc3ccccc3)[C@@H]3OC(C)(C)O[C@@H]3[C@H]2O1 (stereo partly specified) | 50 µg/mL (≈ 118 µM) | > 50 µg/mL | > 50 µg/mL | > 50 µg/mL | > 50 µg/mL | 25 µg/mL (≈ 59 µM) | > 50 µg/mL | – | – | – | – | – | – |
